test system: immunoglobulin light chain protein WIL-FL T46L; assay: Differential scanning fluorimetry (thermal shift) assay; assay type: binding; conditions: Table A; temperature shift [Tm]compound-[Tm]vehicle; recombinant WIL-FL T46L

| Compound | DSF |
| --- | --- |
| Cc1ncn(CC23CC(C(N)=O)(C2)C(c2nc4c(C)cc(N5CC[C@](C)(c6ccccc6)C5)cn4n2)O3)n1 (stereo partly drawn) [Compound 95] | ***** (>2.5° C.=*****) |
| Cc1cc(N2CC[C@](C)(c3ccccc3)C2)cn2nc(C(=O)NC3C4CCC3NC4)nc12 (stereo partly drawn) [Compound 201] | ***** (>2.5° C.=*****) |
| Cc1cc(N2CC[C@](C)(c3ccc(Cl)c(Cl)c3)C2)cn2nc(C(=O)N3CC[C@@]4(CCN(c5cccc(C(=O)O)n5)C4)C3)nc12 [Compound 37, 6-[(5R)-2-[6-[(3R)-3-(3,4-dichlorophenyl)-3-methyl-pyrrolidin-1-yl]-8-methyl-[1,2,4]triazolo[1,5-a]pyridine-2-carbonyl]-2,7-diazaspiro[4.4]nonan-7-yl]pyridine-2-carboxylic acid] | ***** (>2.5° C.=*****) |
| Cc1cc(N2CC[C@](C)(c3ccccc3)C2)cn2nc(S(=O)(=O)NC3CCNCC3)nc12 [Compound 325] | ***** (>2.5° C.=*****) |
| Cc1cc(N2CC[C@](CO)(c3ccccc3)C2)cn2nc(C(=O)N3CC[C@@]4(CCN(c5cccc(C(=O)O)n5)C4)C3)nc12 [Compound 332] | ***** (>2.5° C.=*****) |
| Cc1cc(N2CC[C@](C)(c3ccccc3)C2)cn2nc(S(=O)(=O)NC3CNC3)nc12 [Compound 27, N-(azetidin-3-yl)-8-methyl-6-[(3R)-3-methyl-3-phenyl-pyrrolidin-1-yl]-[1,2,4]triazolo[1,5-a]pyridine-2-sulfonamide] | ***** (>2.5° C.=*****) |
| COc1cc(N2CC[C@](C)(c3ccccc3)C2)cn2nc(C(=O)N3CC[C@@]4(CCN(c5cccc(C(=O)O)n5)C4)C3)nc12 [Compound 294] | ***** (>2.5° C.=*****) |
| CNC(=O)c1nc2c(C)cc(N3CC[C@](c4ccccc4)(C(F)F)C3)cn2n1 [Compound 328] | **** (>1.5-2.5° C.=****) |
| Cc1cc(N2CC[C@](C)(c3ccccc3)C2)cn2nc(C(=O)NCCN3C[C@H](O)[C@@H](O)C3)nc12 [Compound 119] | ***** (>2.5° C.=*****) |
| Cc1cc(N2CC(C)(c3ccccc3)C2)cn2nc(C(=O)N3CC[C@@]4(CCN(c5cccc(C(=O)O)n5)C4)C3)nc12 [Compound 398] | ***** (>2.5° C.=*****) |
| COC(=O)C1C2CN(C3CCC34CC(NC(=O)c3nc5c(C)cc(N6CC[C@](C)(c7ccccc7)C6)cn5n3)C4)CC21 (stereo partly drawn) [Compound 372] | ***** (>2.5° C.=*****) |
| Cc1cc(N2CC[C@](C)(c3ccccc3)C2)cn2nc(C34CC(CO3)C4c3nc(C(N)=O)n[nH]3)nc12 (stereo partly drawn) [Compound 6, 5-[1-[8-methyl-6-[(3R)-3-methyl-3-phenyl-pyrrolidin-1-yl]-[1,2,4]triazolo[1,5-a]pyridine-2-yl]-2-oxabicyclo[2.1.1]hexan-5-yl]-1H-1,2,4-triazole-3-carboxamide] | ***** (>2.5° C.=*****) |
| Cc1cc(N2CC[C@](C)(c3ccccc3)C2)cn2nc(C(=O)O)nc12 [Compound 184] | ** (>0.5-1 °C =**) |
| Cc1cc(N2CC3CC2(c2ccccc2)C3)cn2nc(C(=O)N3C[C@@H]4CN(c5cccc(C(=O)O)n5)C[C@@H]4C3)nc12 [Compound 297] | * (0-0.5° C.=*) |
| Cc1noc([C@@H]2C[C@H](NC(=O)c3nc4c(C)cc(N5CC[C@](C)(c6ccccc6)C5)cn4n3)CN2)n1 [Compound 133] | ***** (>2.5° C.=*****) |
| Cc1cc(N2CC[C@](C)(c3ccccc3)C2)cn2nc(C(=O)NC3CCN(c4cncnc4)C3)nc12 (stereo partly drawn) [Compound 190] | ***** (>2.5° C.=*****) |
| Cc1nsc(C2(C)CCN(c3cc(C)c4nc(C(=O)N5C[C@@H]6CN(c7cccc(C(=O)O)n7)C[C@@H]6C5)nn4c3)C2)n1 (stereo partly drawn) [Compound 299] | *** (>1-1.5° C.=***) |
| Cc1cc(N2CC[C@](C)(c3ccccc3)C2)cn2nc(C34CC(CO)(CO3)C4C(N)=O)nc12 (stereo partly drawn) [Compound 42] | ***** (>2.5° C.=*****) |
| Cc1cc(N2CC[C@](C)(c3ccccc3)C2)cn2nc(C(=O)NC3CCN(c4cccc(C(=O)O)n4)CC34COC4)nc12 (stereo partly drawn) [Compound 20, 6-(9-(8-methyl-6-((R)-3-methyl-3-phenylpyrrolidin-1-yl)-[1,2,4]triazolo[1,5-a]pyridine-2-carboxamido)-2-oxa-6-azaspiro[3.5]nonan-6-yl)picolinic acid] | ***** (>2.5° C.=*****) |
| Cc1cc(OCC2(c3ccccc3)CC2)cn2nc(C34CC(CO3)C4N)nc12 (stereo not drawn) [Compound 96] | **** (>1.5-2.5° C.=****) |
| Cc1cc(N2CC[C@](C)(c3ccccc3)C2)cn2nc(C(=O)NCC3(O)CC3)nc12 [Compound 120] | ***** (>2.5° C.=*****) |
| C[C@@]1(c2ccccc2)CCN(c2cc(CO)c3nc(C(=O)N4CC5CN(c6cccc(C(=O)O)n6)CC5C4)nn3c2)C1 (stereo partly drawn) [Compound 347] | ***** (>2.5° C.=*****) |
| Cc1cc(N2CC[C@](C)(c3cccc(F)c3)C2)cn2nc(C(=O)NC3CC4(C3)CC(N3CC5C(C3)C5C(=O)O)C4)nc12 (stereo partly drawn) [Compound 384] | ***** (>2.5° C.=*****) |
| Cc1cc(N2CC[C@](C)(c3ccccc3)C2)cn2nc(C34CC(CN)(C3)OC4(C)C)nc12 [Compound 65] | **** (>1.5-2.5° C.=****) |
| Cc1cc(N2CC[C@](C)(c3ccccc3)C2)cn2nc(C(=O)NC3CCC(O)(c4cccc(C(=O)O)n4)CC3)nc12 (stereo partly drawn) [Compound 269] | ***** (>2.5° C.=*****) |
| CNC(=O)c1nc2c(CNC(C)=O)cc(N3CC[C@](C)(c4ccccc4)C3)cn2n1 [Compound 348] | ***** (>2.5° C.=*****) |
| C[C@]1(c2ccccc2)CCN(c2cc(CO)c3nc(C45CC(N)(CO4)C5)nn3c2)C1 [Compound 59] | ***** (>2.5° C.=*****) |

same assay, conditions: Table B; temperature shift [Tm]compound-[Tm]vehicle; recombinant WIL-FL T46L

| Compound | DSF |
| --- | --- |
| Cc1cc(N2CC[C@](C)(c3ccccc3)C2)cn2nc(C(=O)N[C@@H]3CN(c4cccc(C(=O)O)n4)CC3(C)C)nc12 [Compound 683] | ***** (>2.5° C.=*****) |
| Cc1cc(N2CC[C@](C)(c3ccccc3)C2)cn2nc(C34CC(NC(=O)Nc5cccc(C(=O)O)n5)(CO3)C4)nc12 [Compound 454] | ***** (>2.5° C.=*****) |
| CCC(=O)NCC12COC(c3nc4c(C)cc(N5CC[C@](C)(c6ccccc6)C5)cn4n3)(C1)C2 [Compound 462] | ***** (>2.5° C.=*****) |
| CCS(=O)(=O)NCC12COC(c3nc4c(C)cc(N5CC[C@](C)(c6ccccc6)C5)cn4n3)(C1)C2c1n[nH]c(C)n1 (stereo partly drawn) [Compound 587] | ***** (>2.5° C.=*****) |
| CNC(=O)c1nc2c(C(F)F)cc(N3CC[C@](C)(c4ccccc4)C3)cn2n1 [Compound 760, (R)-8-(difluoromethyl)-N-methyl-6-(3-methyl-3-phenylpyrrolidin-1-yl)-[1,2,4]triazolo[1,5-a]pyridine-2-carboxamide] | ***** (>2.5° C.=*****) |
| Cc1cc(N2CC[C@](C)(c3ccccc3)C2)cn2nc(C(=O)NC3CC[C@@]4(CCN(c5cccc(C(=O)O)n5)C4)C3)nc12 (mixture of isomers) [Compound 634, 6-[rac-(5R)-8-[[8-methyl-6-[rac-(3R)-3-methyl-3-phenyl-pyrrolidin-1-yl]-[1,2,4]triazolo[1,5-a]pyridine-2-carbonyl]amino]-2-azaspiro[4.4]nonan-2-yl]pyridine-2-carboxylic acid] | ***** (>2.5° C.=*****) |
| Cc1cc(N2CC[C@](C)(c3ccccc3)C2)cn2nc(C(=O)NC3CC4(C3)CC(N3CCC(C(=O)O)CC3)C4)nc12 (stereo partly drawn) [Compound 599] | ***** (>2.5° C.=*****) |
| Cc1cc(N2CC[C@](C)(c3ccccc3)C2)cn2nc(C(=O)N3C[C@H](O)[C@@]4(CCN(c5cccc(C(=O)O)n5)C4)C3)nc12 [Compound 703, Mis6-[4-hydroxy-2-[8-methyl-6-[(3R)-3-methyl-3-phenyl-pyrrolidin-1-yl]-[1,2,4]triazolo[1,5-a]pyridine-2-carbonyl]-2,7-diazaspiro[4.4]nonan-7-yl]pyridine-2-carboxylic acid] | ***** (>2.5° C.=*****) |
| Cc1cc(N2CC[C@](C)(c3ccccc3)C2)cn2nc(C(=O)N3CCC4(CCN(c5cnnc(C(=O)O)c5)C4)C3)nc12 (stereo partly drawn) [Compound 730, 5-(7-(8-methyl-6-((R)-3-methyl-3-phenylpyrrolidin-1-yl)-[1,2,4]triazolo[1,5-a]pyridine-2-carbonyl)-2,7-diazaspiro[4.4]nonan-2-yl)pyridazine-3-carboxylic acid] | ***** (>2.5° C.=*****) |
| CCS(=O)(=O)Nc1nc(C2C3(CO)COC2(c2nc4c(C)cc(N5CC[C@](C)(c6ccccc6)C5)cn4n2)C3)n[nH]1 (stereo partly drawn) [Compound 573, N-[3-[4-(hydroxymethyl)-1-[8-methyl-6-[(3R)-3-methyl-3-phenyl-pyrrolidin-1-yl]-[1,2,4]triazolo[1,5-a]pyridin-2-yl]-2-oxabicyclo[2.1.1]hexan-5-yl]-1H-1,2,4-triazol-5-yl]ethanesulfonamide] | ***** (>2.5° C.=*****) |
| Cc1cc(N2CC[C@](C)(c3ccccc3)C2)cn2nc(C(=O)N3CCC4C3CCN4c3cccc(C(=O)O)n3)nc12 (stereo partly drawn) [Compound 611] | ***** (>2.5° C.=*****) |
| Cc1cc(N2CC[C@](C)(c3ccccc3)C2)cn2nc(C(=O)NC3CN(c4cccc(C(=O)O)n4)C4(COC4)C3)nc12 (stereo partly drawn) [Compound 664, 6-[7-[[8-methyl-6-[(3R)-3-methyl-3-phenyl-pyrrolidin-1-yl]-[1,2,4]triazolo[1,5-a]pyridine-2-carbonyl]amino]-2-oxa-5-azaspiro[3.4]octan-5-yl]pyridine-2-carboxylic acid] | ***** (>2.5° C.=*****) |
| Cc1cc(N2CC[C@](C)(c3ccccc3)C2)cn2nc(C(=O)N3CCC(O)(CNc4cccc(C(=O)O)n4)C3)nc12 (stereo partly drawn) [Compound 686] | ***** (>2.5° C.=*****) |
| Cc1cc(N2CC[C@](C)(c3ccccc3)C2)cn2nc(C34CC(Cn5nncc5C)(CO3)C4)nc12 [Compound 451] | ***** (>2.5° C.=*****) |
| Cc1cc(N2CC[C@](C)(c3ccc(F)c(Cl)c3)C2)cn2nc(C(=O)N3CC[C@@]4(CCN(c5cccc(C(=O)O)n5)C4)C3)nc12 [Compound 748] | ***** (>2.5° C.=*****) |
| Cc1cc(N2CC[C@](C)(c3ccccc3)C2)cn2nc(C(=O)N3C[C@@H]4CN(c5cccc(C(=O)O)n5)C[C@H]4C3)nc12 [Compound 644] | ***** (>2.5° C.=*****) |
| Cc1cc(N2CC[C@](C)(c3ccccc3)C2)cn2nc(C34CC(Cn5ncnc5C)(CO3)C4)nc12 [Compound 449] | ***** (>2.5° C.=*****) |
| Cc1cc(N2CC[C@](C)(c3ccccc3)C2)cn2nc(C34CC(CO3)C4Cn3ncc(CO)n3)nc12 (stereo partly drawn) [Compound 482] | ***** (>2.5° C.=*****) |

Source: patent US20260285857A1, “BICYCLIC AND HETEROCYCLIC AMIDE COMPOUNDS” (priority 2024, published 2026)
